In patent publication US20110207764A1, “CYCLOPOLYSACCHARIDE COMPOSITIONS” (priority 2010, published 2011):

Experiment: Concentration of active ingredient dissolved in 60% (w/w) aqueous SBECD after filtration, determined by HPLC
Assay type: physicochemical
Settings: boiling water bath 1 hour, room temperature 24 hours, 0.2 micrometer filter
Method: 200 mg of coumarin were added to 4 g of 60% (w/w) aqueous SBECD, and the mixture was mixed at 34° C. for 48 hours, and then filtered through a 0.2 micrometer nylon filter to produce 44.3 mg/g coumarin solution, as determined by HPLC. 40 mg of cetylpiridinium chloride were added to the solution and mixed until completely dissolved, and the composition was filtered.
400 mg of ibuprofen were added to 4 g of 60% (w/w) aqueous SBECD, and the mixture was mixed at 34° C. for 48 hours, and then filtered through a 0.2 micrometer nylon filter to produce 78.1 mg/g ibuprofen solution, as determined by HPLC. 60 mg of triethanoloamine were added to the solution and mixed until completely dissolved, and the composition was filtered.
2 mg of paclitaxel were added to 4 g of 60% (w/w) aqueous SBECD, and the mixture was mixed at 34° C. for 48 hours, and then filtered through a 0.2 micrometer nylon filter to produce 0.4 mg/g paclitaxel solution, as determined by HPLC. 40 mg of heptakis(6-guanidino-6-deoxy)-beta-cyclodextrin were added to the solution and mixed until completely dissolved, and the composition was filtered.
200 mg of diindolylmethane were added to 4 g of 60% (w/w) aqueous SBECD, and the mixture was heated in boiling water bath for 1 hour, then kept at room temperature for 24 hours. The mixture was then filtered through a 0.2 micrometer nylon filter to produce 40.3 mg/g diindolylmethane solution, as determined by HPLC. 24 mg of octakis(6-guanidino-6-deoxy)-gamma-cyclodextrin were added to the solution and mixed until completely dissolved, and the composition was filtered.
10 mg of Semaxanib (3-((3,5-dimethyl-1H-pyrrol-2-yl)methylene)indolin-2-one) were added to 4 g of 60% (w/w) aqueous SBECD, and the mixture was heated in boiling water bath for 1 hour, then kept at room temperature for 24 hours. The mixture was then filtered through a 0.2 micrometer nylon filter to produce 1.3 mg/g semaxanib solution, as determined by HPLC. 80 mg of PI2080 (polyethyleneimine 2000 conjugated with PEG 8000) were added and mixed until completely dissolved, and the composition was filtered.
40 mg of xanthone (9H-xanthen-9-one) were added to 4 g of 60% (w/w) aqueous SBECD, and the mixture was heated in boiling water bath for 1 hour, then kept at room temperature for 24 hours. The mixture was filtered through a 0.2 micrometer nylon filter to produce 8.2 mg/g xanthone solution, as determined by HPLC. 120 mg of low molecular weight protamine were added and mixed until completely dissolved, and the composition was filtered.
100 mg of carvedilol were added to 4 g of 60% (w/w) aqueous SBECD, and the mixture was heated in boiling water bath for 1 hour, then kept at room temperature for 24 hours. The mixture was filtered through a 0.2 micrometer nylon filter to produce 22.6 mg/g carvedilol solution, as determined by HPLC. 120 mg of hexakis(6-amino-6-deoxy)-alpha-cyclodextrin were dissolved in 2 mL water, and the two solutions mixed until completely homogenous. The product solution was freeze-dried to form an amorphous solid.
10 mg of talidomid were added to 4 g of 60% (w/w) aqueous SBECD, and the mixture was mixed at 34° C. for 48 hours. The mixture was filtered through a 0.2 micrometer nylon filter to produce 1.7 mg/g talidomid solution, as determined by HPLC. 120 mg of heptakis(6-amino-6-deoxy)-beta-cyclodextrin were added and mixed until completely dissolved, and the composition was filtered.
2 mg of SN-38 (7-Ethyl-10-hydroxy-camptothecin) were added to 4 g of 60% (w/w) aqueous SBECD, and the mixture was heated in boiling water bath for 1 hour, then kept at room temperature for 24 hours. The mixture was filtered through a 0.2 micrometer nylon filter to produce 0.39 mg/g SN-38 solution, as determined by HPLC. A solution of 60 mg of heptakis(6-amino-6-deoxy)-beta-cyclodextrin in 2 mL water was added to the SN-38 solution, and mixed until the resulting solution was completely homogenous. The composition was filtered. […]

Q: For CCc1c2c(nc3ccc(O)cc13)-c1cc3c(c(=O)n1C2)COC(=O)[C@]3(O)CC [SN-38, 7-Ethyl-10-hydroxy-camptothecin], which “concentration of active ingredient in filtered solution” value (“concentration of active ingredient” below) is on record?
A: The value was 0.39 mg/g.

Q: For COc1ccccc1OCCNCC(O)COc1cccc2[nH]c3ccccc3c12 (stereo not drawn) [carvedilol], which “concentration of active ingredient” value is on record?
A: The value was 22.6 mg/g.

Q: With CC(=O)[C@@]1(O)CC[C@H]2[C@@H]3C=C(C)C4=CC(=O)CC[C@]4(C)[C@H]3CC[C@@]21C [megesterol] as the compound, how does the “concentration of active ingredient” value read?
A: Its value is 4.3 mg/g.

Q: Which “concentration of active ingredient” value does the source give for Cc1cc(C)c(C=C2C(=O)Nc3ccccc32)[nH]1 [semaxanib, 3-((3,5-dimethyl-1H-pyrrol-2-yl)methylene)indolin-2-one] here?
A: Its value is 1.3 mg/g.

Q: With O=c1c2ccccc2oc2ccccc12 [xanthone, 9H-xanthen-9-one] as the compound, how does the “concentration of active ingredient” value read?
A: The value was 8.2 mg/g.

Same assay, conditions: mixed at 34° C. for 48 hours, 0.2 micrometer filter

Q: Which “concentration of active ingredient” value does the source give for O=c1ccc2ccccc2o1 [coumarin] here?
A: The value was 44.3 mg/g.

Q: With CC(C)Cc1ccc(C(C)C(=O)O)cc1 (stereo not drawn) [ibuprofen] as the compound, how does the “concentration of active ingredient” value read?
A: The value was 78.1 mg/g.

Q: For CC(=O)O[C@H]1C(=O)[C@@]2(C)[C@H]([C@H](OC(=O)c3ccccc3)[C@]3(O)C[C@H](OC(=O)[C@H](O)[C@@H](NC(=O)c4ccccc4)c4ccccc4)C(C)=C1C3(C)C)[C@]1(OC(C)=O)CO[C@@H]1C[C@@H]2O [paclitaxel], which “concentration of active ingredient” value is on record?
A: The value was 0.4 mg/g.

Q: With O=C1CCC(N2C(=O)c3ccccc3C2=O)C(=O)N1 (stereo not drawn) [talidomid] as the compound, how does the “concentration of active ingredient” value read?
A: The value was 1.7 mg/g.
